In ChEMBL document CHEMBL1201862, “PubChem BioAssay data set” (2004):
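Cultured in 96-well plates, cells were exposed to test compound for 48 hours across five concentrations. Abbreviation: GI50, concentration required for 50% inhibition of growth.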 The source made the active and inactive calls. No stated cut-off is given here; in the data, active = GI50 up to about 1.1 µM and inactive = higher.

Experiments:
Assay in all cases: DTP human tumour cell line panel, 48 h
[1] = test system: SNB-19
[2] = test system: SK-MEL-5
[3] = test system: UACC-257
[4] = test system: HT-29
[5] = test system: ACHN
[6] = test system: HCT-116
[7] = test system: TK-10
[8] = test system: DU-145
[9] = test system: M14
[10] = test system: RXF 393
[11] = test system: NCI-H460
[12] = test system: MDA-N
[13] = test system: A498
[14] = test system: NCI/ADR-RES
[15] = test system: SK-OV-3
[16] = test system: NCI-H23
[17] = test system: COLO 205
[18] = test system: NCI-H226
[19] = test system: LOX IMVI

Row | SMILES | GI50 [1] | GI50 [2] | GI50 [3] | GI50 [4] | GI50 [5] | GI50 [6] | GI50 [7] | GI50 [8] | GI50 [9] | GI50 [10] | GI50 [11] | GI50 [12] | GI50 [13] | GI50 [14] | GI50 [15] | GI50 [16] | GI50 [17] | GI50 [18] | GI50 [19]
1 | CC1S/C(=N\N=C2/C(=O)Nc3ccc(Br)cc32)N(C2CCCCC2)C1=O (stereo not given) | 4.06 µM (inactive) | 40.6 µM (inactive) | 21 µM (inactive) | 8.69 µM (inactive) | 1.16 µM (inactive) | 2.24 µM (inactive) | 1.15 µM (inactive) | 3.73 µM (inactive) | 4.29 µM (inactive) | 3.21 µM (inactive) | 3.96 µM (inactive) | 12.1 µM (inactive) | 3.04 µM (inactive) | 3.4 µM (inactive) | 2.84 µM (inactive) | 4.42 µM (inactive) | 3.85 µM (inactive) | 4.03 µM (inactive) | 3.62 µM (inactive)
2 | C[C@@H](Cl)[C@H]1CCCN(Cc2ccc(Br)cc2)C1 | > 12.5 µM (inactive) | > 12.5 µM (inactive) | > 12.5 µM (inactive) | > 12.5 µM (inactive) | > 12.5 µM (inactive) |  | > 12.5 µM (inactive) | > 12.5 µM (inactive) | > 12.5 µM (inactive) | > 12.5 µM (inactive) | > 12.5 µM (inactive) | > 12.5 µM (inactive) | > 12.5 µM (inactive) | > 12.5 µM (inactive) | > 12.5 µM (inactive) | > 12.5 µM (inactive) | > 12.5 µM (inactive) | > 12.5 µM (inactive) | > 12.5 µM (inactive)
3 | O=C(c1ccco1)N(C(=S)OCc1ccccn1)c1ccccc1 | > 100 µM (inactive) | 88.9 µM (inactive) | > 100 µM (inactive) | > 100 µM (inactive) | 86.1 µM (inactive) | > 100 µM (inactive) | > 100 µM (inactive) | > 100 µM (inactive) | > 100 µM (inactive) | 30.9 µM (inactive) |  | > 100 µM (inactive) | > 100 µM (inactive) | 62.5 µM (inactive) | > 100 µM (inactive) | > 100 µM (inactive) | > 100 µM (inactive) | 29.6 µM (inactive) | > 100 µM (inactive)
4 | COP1(=O)NCc2ncccc2O1 (stereo not given) | > 100 µM (inactive) | > 100 µM (inactive) | > 100 µM (inactive) | > 100 µM (inactive) | > 100 µM (inactive) | > 100 µM (inactive) |  | > 100 µM (inactive) | > 100 µM (inactive) | > 100 µM (inactive) | > 100 µM (inactive) | > 100 µM (inactive) | > 100 µM (inactive) | > 100 µM (inactive) |  | > 100 µM (inactive) | > 100 µM (inactive) | > 100 µM (inactive) | > 100 µM (inactive)
5 | C=C1C(=O)C2=C[C@H]1C[C@H](O)C(=O)[C@]1(C)CCCC(C)(C)[C@H]1C[C@H]2O | 16.1 µM (inactive) |  | 1.86 µM (inactive) | 1.47 µM (inactive) | 0.452 µM (active) | 1.63 µM (inactive) | 0.787 µM (active) | 1.77 µM (inactive) | 1.52 µM (inactive) | 0.315 µM (active) | 2.88 µM (inactive) | 1.93 µM (inactive) | 1.86 µM (inactive) | 1.67 µM (inactive) | 12.8 µM (inactive) | 1.63 µM (inactive) | 0.638 µM (active) | 10.5 µM (inactive) | 0.916 µM (active)
6 | Cc1cc2nc3[nH]nc(N)c3nc2cc1C | > 100 µM (inactive) |  | > 100 µM (inactive) | > 100 µM (inactive) | > 100 µM (inactive) | > 100 µM (inactive) | > 100 µM (inactive) | 36.6 µM (inactive) | > 100 µM (inactive) | 32.3 µM (inactive) | > 100 µM (inactive) | > 100 µM (inactive) | > 100 µM (inactive) | > 100 µM (inactive) | > 100 µM (inactive) | > 100 µM (inactive) | 44.4 µM (inactive) | 17.7 µM (inactive) | > 100 µM (inactive)
7 | CCOC(=O)c1ccc(OCc2nc3cc(C(F)(F)F)ccc3nc2-c2ccccc2)cc1 | > 100 µM (inactive) | 44 µM (inactive) | > 100 µM (inactive) | > 100 µM (inactive) | > 100 µM (inactive) | > 100 µM (inactive) | > 100 µM (inactive) | > 100 µM (inactive) | > 100 µM (inactive) | > 100 µM (inactive) | 97.9 µM (inactive) | > 100 µM (inactive) | > 100 µM (inactive) | > 100 µM (inactive) |  | > 100 µM (inactive) | > 100 µM (inactive) | > 100 µM (inactive) | > 100 µM (inactive)
8 | O=P1(C(O)c2ccccc2)N(Cc2ccccc2)[C@@H]2CCCC[C@H]2N1Cc1ccccc1 (stereo not given in full) | 56.2 µM (inactive) | 30.3 µM (inactive) | 21.4 µM (inactive) | 15 µM (inactive) | 30.8 µM (inactive) | 27.4 µM (inactive) | 30.3 µM (inactive) | 35 µM (inactive) | 24.8 µM (inactive) | 31.4 µM (inactive) | 30.2 µM (inactive) | 31.9 µM (inactive) |  | 26.3 µM (inactive) | 58.2 µM (inactive) | 47.9 µM (inactive) | 14.8 µM (inactive) | 24.8 µM (inactive) | 17.5 µM (inactive)
9 | OCC(O)COCn1nncc1Cn1ncc2c(SCc3ccccc3)ncnc21 (stereo not given) | > 100 µM (inactive) | > 100 µM (inactive) | > 100 µM (inactive) | > 100 µM (inactive) | > 100 µM (inactive) | > 100 µM (inactive) | > 100 µM (inactive) | > 100 µM (inactive) | > 100 µM (inactive) |  |  | > 100 µM (inactive) | > 100 µM (inactive) | > 100 µM (inactive) | > 100 µM (inactive) | > 100 µM (inactive) | > 100 µM (inactive) |  | > 100 µM (inactive)
10 | N/N=C(\Nc1ccccc1)SCc1ccccc1 | > 100 µM (inactive) | > 100 µM (inactive) | > 100 µM (inactive) | > 100 µM (inactive) | > 100 µM (inactive) | > 100 µM (inactive) |  | > 100 µM (inactive) | > 100 µM (inactive) | > 100 µM (inactive) | > 100 µM (inactive) | > 100 µM (inactive) | > 100 µM (inactive) | > 100 µM (inactive) | > 100 µM (inactive) | > 100 µM (inactive) | > 100 µM (inactive) | > 100 µM (inactive) | > 100 µM (inactive)
11 | O=C(O)c1cc(NC2=C(Cl)C(=O)c3c(O)ccc(O)c3C2=O)ccc1O | > 10 µM (inactive) | > 10 µM (inactive) | > 10 µM (inactive) | > 10 µM (inactive) | > 10 µM (inactive) | > 10 µM (inactive) | > 10 µM (inactive) | > 10 µM (inactive) | > 10 µM (inactive) |  | > 10 µM (inactive) | > 10 µM (inactive) | > 10 µM (inactive) | > 10 µM (inactive) | > 10 µM (inactive) | > 10 µM (inactive) | > 10 µM (inactive) | > 10 µM (inactive) | > 10 µM (inactive)
12 | CC(C)[C@H](NC(=O)[C@@H](O)[C@H](N)Cc1ccccc1)C(=O)N[C@@H](Cc1ccccc1)C(=O)O | > 100 µM (inactive) | > 100 µM (inactive) | > 100 µM (inactive) |  | > 100 µM (inactive) | > 100 µM (inactive) | > 100 µM (inactive) | > 100 µM (inactive) | > 100 µM (inactive) |  | > 100 µM (inactive) | > 100 µM (inactive) | > 100 µM (inactive) | > 100 µM (inactive) | > 100 µM (inactive) | > 100 µM (inactive) | > 100 µM (inactive) | > 100 µM (inactive) | > 100 µM (inactive)
13 | CC1(C)OCC(/C=C\C(O)CC2(C)OCCO2)CO1 (stereo not given) | > 100 µM (inactive) | > 100 µM (inactive) | > 100 µM (inactive) | > 100 µM (inactive) | > 100 µM (inactive) | > 100 µM (inactive) | > 100 µM (inactive) | > 100 µM (inactive) | > 100 µM (inactive) |  | > 100 µM (inactive) | > 100 µM (inactive) | > 100 µM (inactive) | > 100 µM (inactive) | > 100 µM (inactive) |  | > 100 µM (inactive) | > 100 µM (inactive) | > 100 µM (inactive)
14 | ClC1(Cl)C(c2ccccc2)C1c1ccccc1 (stereo not given) | 25.9 µM (inactive) |  | 30.7 µM (inactive) |  | 25.6 µM (inactive) | 23.9 µM (inactive) | 54 µM (inactive) | 42.2 µM (inactive) | 27.7 µM (inactive) | 14.4 µM (inactive) | 13.2 µM (inactive) | 5.32 µM (inactive) | 38.8 µM (inactive) | 7.16 µM (inactive) | 18.8 µM (inactive) | 24.6 µM (inactive) | 36 µM (inactive) | 14.6 µM (inactive) | 28.2 µM (inactive)
15 | C[C@H](CC[C@@H](O)C(C)(C)O)[C@H]1CC[C@@]2(C)[C@@H]3CC=C4[C@@H](CC[C@H](O)C4(C)C)[C@]3(C)C(=O)C[C@]12C [BRYODULCOSIGENIN] | > 50 µM (inactive) | 24.7 µM (inactive) | 49 µM (inactive) | 10.8 µM (inactive) | > 50 µM (inactive) | 22 µM (inactive) | > 50 µM (inactive) | > 50 µM (inactive) | 29 µM (inactive) |  | 31.1 µM (inactive) | 22.9 µM (inactive) | > 50 µM (inactive) | 14.7 µM (inactive) | 42.5 µM (inactive) | 26.6 µM (inactive) | 11.1 µM (inactive) | 20.8 µM (inactive) | 45.9 µM (inactive)
